Key:
Assay in all cases: radiometric filter-binding kinase assay, Kinase HotSpot
Conditions in all cases: compound 0.5 µM; ATP 10 µM
MAPKAPK3 (human) = MAPKAPK3 (human) (UniProt Q16644)
GSK3B (human) = GSK3B (human) (UniProt P49841)
PAK7 (human) = PAK7 (human) (UniProt Q9P286)
MAP3K11 (human) = MAP3K11 (human) (UniProt Q16584)
ROCK1 (human) = ROCK1 (human) (UniProt Q13464)
BRAF (human) = BRAF (human) (UniProt P15056)
CDK2 CCNE1 (human) = CDK2 CCNE1 (human) (UniProt P24941+P24864)
DAPK2 (human) = DAPK2 (human) (UniProt Q9UIK4)
ULK3 (human) = ULK3 (human) (UniProt Q6PHR2)
MYO3B (human) = MYO3B (human) (UniProt Q8WXR4)
PIM1 (human) = PIM1 (human) (UniProt P11309)
EPHB4 (human) = EPHB4 (human) (UniProt P54760)
ADRBK1 (human) = ADRBK1 (human) (UniProt P25098)
TLK2 (human) = TLK2 (human) (UniProt Q86UE8)
IKBKE (human) = IKBKE (human) (UniProt Q14164)
BMX (human) = BMX (human) (UniProt P51813)
AURKC (human) = AURKC (human) (UniProt Q9UQB9)
STK38 (human) = STK38 (human) (UniProt Q15208)
FRK (human) = FRK (human) (UniProt P42685)
DYRK2 (human) = DYRK2 (human) (UniProt Q92630)
NEK1 (human) = NEK1 (human) (UniProt Q96PY6)
FGFR1 (human) = FGFR1 (human) (UniProt P11362)
EPHA7 (human) = EPHA7 (human) (UniProt Q15375)
RPS6KA2 KD1 KD2 (human) = RPS6KA2 KD1 KD2 (human) (UniProt Q15349)
PRKCG (human) = PRKCG (human) (UniProt P05129)
DMPK (human) = DMPK (human) (UniProt Q09013)
FLT3 (human) = FLT3 (human) (UniProt P36888)
EPHA5 (human) = EPHA5 (human) (UniProt P54756)
YES1 (human) = YES1 (human) (UniProt P07947)
PRKCD (human) = PRKCD (human) (UniProt Q05655)
CAMK1 (human) = CAMK1 (human) (UniProt Q14012)
STK3 (human) = STK3 (human) (UniProt Q13188)
ACVR1B (human) = ACVR1B (human) (UniProt P36896)
PRKACG (human) = PRKACG (human) (UniProt P22612)
INSR (human) = INSR (human) (UniProt P06213)
SYK (human) = SYK (human) (UniProt P43405)
MAP3K5 (human) = MAP3K5 (human) (UniProt Q99683)
EPHA6 (human) = EPHA6 (human) (UniProt Q9UF33)
GRK4 (human) = GRK4 (human) (UniProt P32298)
IGF1R (human) = IGF1R (human) (UniProt P08069)

Chain of EPHB4 (human) (P54760 whole entry, looked up): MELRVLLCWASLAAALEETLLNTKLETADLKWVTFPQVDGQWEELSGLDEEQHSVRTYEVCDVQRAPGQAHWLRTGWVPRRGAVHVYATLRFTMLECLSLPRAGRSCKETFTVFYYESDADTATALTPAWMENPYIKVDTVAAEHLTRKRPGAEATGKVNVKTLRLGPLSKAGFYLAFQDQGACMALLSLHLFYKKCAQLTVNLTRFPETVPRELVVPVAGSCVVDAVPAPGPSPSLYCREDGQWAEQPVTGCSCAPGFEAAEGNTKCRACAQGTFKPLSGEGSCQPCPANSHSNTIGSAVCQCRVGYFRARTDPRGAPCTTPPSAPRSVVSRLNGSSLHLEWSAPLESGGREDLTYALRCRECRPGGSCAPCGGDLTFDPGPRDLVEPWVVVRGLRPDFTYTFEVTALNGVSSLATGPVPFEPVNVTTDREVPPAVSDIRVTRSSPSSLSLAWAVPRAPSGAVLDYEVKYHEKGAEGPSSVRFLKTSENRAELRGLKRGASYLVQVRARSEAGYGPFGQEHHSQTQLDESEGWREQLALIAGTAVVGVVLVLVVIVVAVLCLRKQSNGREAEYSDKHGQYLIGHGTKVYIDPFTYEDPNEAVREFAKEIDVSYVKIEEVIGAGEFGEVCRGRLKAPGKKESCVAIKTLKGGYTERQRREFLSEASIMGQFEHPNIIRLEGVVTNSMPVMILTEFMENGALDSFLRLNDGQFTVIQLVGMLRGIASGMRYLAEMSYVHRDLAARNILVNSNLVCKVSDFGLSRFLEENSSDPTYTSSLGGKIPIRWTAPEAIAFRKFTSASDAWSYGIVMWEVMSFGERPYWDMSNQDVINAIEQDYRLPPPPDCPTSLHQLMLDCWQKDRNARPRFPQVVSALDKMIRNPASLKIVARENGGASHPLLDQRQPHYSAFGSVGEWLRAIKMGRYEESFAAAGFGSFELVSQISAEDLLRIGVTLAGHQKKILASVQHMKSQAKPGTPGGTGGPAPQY
Chain of PRKCD (human) (Q05655 whole entry, looked up): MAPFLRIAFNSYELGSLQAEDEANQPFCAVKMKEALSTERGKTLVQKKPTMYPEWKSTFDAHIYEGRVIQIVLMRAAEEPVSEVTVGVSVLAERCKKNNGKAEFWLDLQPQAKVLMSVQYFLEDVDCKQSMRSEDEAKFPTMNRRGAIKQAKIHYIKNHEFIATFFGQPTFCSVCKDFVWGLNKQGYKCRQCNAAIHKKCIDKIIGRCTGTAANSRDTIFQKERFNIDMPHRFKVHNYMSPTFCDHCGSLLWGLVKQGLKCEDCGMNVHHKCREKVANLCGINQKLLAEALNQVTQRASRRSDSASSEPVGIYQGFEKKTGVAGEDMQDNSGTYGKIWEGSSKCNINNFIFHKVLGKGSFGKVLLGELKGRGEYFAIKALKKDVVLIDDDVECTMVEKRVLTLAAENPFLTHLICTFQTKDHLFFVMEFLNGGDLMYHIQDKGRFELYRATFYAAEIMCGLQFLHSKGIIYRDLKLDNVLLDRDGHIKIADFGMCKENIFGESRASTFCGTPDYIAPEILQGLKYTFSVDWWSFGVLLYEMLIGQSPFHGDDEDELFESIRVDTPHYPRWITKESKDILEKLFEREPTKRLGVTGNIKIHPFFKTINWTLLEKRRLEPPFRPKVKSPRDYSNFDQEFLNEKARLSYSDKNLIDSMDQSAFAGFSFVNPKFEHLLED
Chain of MAP3K5 (human) (Q99683 whole entry, looked up): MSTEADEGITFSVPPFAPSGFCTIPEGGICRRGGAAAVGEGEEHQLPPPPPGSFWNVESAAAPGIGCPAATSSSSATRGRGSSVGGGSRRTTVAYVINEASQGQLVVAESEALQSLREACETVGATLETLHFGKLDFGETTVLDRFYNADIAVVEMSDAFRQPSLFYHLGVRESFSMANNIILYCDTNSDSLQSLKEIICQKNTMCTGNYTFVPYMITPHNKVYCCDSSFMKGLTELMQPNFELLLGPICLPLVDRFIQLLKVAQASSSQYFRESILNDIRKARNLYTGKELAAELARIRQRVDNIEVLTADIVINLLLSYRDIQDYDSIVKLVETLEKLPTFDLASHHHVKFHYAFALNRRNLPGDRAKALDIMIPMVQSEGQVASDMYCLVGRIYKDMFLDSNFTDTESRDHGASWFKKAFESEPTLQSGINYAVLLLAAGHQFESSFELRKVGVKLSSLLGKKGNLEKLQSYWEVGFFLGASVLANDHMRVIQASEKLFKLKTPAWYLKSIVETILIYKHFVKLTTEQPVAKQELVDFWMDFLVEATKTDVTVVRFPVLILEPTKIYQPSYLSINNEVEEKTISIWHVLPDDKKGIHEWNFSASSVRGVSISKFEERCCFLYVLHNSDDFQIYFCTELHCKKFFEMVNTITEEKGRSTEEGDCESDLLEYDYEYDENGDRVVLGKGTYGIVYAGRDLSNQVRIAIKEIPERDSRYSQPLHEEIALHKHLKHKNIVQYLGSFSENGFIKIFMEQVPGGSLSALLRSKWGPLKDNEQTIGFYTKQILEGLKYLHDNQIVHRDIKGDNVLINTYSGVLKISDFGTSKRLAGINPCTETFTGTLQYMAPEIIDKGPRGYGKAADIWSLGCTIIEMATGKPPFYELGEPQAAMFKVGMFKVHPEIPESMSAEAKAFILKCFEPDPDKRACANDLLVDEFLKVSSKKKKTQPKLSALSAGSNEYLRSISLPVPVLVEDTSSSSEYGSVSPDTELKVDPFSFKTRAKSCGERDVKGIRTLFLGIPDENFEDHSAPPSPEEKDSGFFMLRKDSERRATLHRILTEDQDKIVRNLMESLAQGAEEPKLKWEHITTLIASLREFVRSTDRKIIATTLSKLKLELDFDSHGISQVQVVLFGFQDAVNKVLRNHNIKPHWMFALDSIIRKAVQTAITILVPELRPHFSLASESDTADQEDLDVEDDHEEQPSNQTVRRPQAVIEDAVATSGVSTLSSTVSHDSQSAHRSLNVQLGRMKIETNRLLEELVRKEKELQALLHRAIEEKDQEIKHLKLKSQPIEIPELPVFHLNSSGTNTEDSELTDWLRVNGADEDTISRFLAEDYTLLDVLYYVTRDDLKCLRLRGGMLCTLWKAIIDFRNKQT
Chain of FRK (human) (P42685 whole entry, looked up): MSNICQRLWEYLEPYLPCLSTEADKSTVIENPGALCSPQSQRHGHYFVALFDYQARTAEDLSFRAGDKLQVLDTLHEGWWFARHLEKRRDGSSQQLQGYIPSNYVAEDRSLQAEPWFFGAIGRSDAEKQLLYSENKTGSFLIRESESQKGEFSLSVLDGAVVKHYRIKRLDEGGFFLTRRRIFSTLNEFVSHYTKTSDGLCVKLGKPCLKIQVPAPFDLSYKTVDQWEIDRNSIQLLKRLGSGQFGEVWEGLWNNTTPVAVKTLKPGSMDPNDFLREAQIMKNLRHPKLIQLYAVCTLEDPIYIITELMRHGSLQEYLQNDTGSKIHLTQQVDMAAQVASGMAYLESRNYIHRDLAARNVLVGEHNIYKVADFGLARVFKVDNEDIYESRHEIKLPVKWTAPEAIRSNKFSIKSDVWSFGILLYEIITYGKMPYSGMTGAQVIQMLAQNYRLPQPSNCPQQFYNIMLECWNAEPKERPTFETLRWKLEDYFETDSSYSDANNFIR
Chain of PAK7 (human) (Q9P286 whole entry, looked up): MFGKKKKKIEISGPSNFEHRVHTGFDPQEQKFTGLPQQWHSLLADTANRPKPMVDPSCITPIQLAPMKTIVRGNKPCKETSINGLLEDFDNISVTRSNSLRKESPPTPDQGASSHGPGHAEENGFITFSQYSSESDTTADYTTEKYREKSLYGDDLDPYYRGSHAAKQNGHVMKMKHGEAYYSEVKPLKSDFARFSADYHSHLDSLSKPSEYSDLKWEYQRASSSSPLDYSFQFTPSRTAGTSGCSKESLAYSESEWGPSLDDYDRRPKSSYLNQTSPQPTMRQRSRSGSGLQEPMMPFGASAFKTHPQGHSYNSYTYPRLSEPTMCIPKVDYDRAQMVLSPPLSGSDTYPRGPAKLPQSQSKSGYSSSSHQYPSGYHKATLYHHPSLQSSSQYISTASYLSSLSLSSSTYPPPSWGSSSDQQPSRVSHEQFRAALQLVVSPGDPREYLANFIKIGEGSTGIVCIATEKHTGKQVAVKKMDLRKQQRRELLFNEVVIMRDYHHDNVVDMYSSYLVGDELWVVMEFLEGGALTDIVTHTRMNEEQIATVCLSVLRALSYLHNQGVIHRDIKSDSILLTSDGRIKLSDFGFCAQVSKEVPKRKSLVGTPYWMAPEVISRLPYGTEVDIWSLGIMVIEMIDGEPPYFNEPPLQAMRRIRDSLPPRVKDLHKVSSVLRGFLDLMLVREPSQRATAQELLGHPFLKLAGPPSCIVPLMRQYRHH
Chain of BMX (human) (P51813 whole entry, looked up): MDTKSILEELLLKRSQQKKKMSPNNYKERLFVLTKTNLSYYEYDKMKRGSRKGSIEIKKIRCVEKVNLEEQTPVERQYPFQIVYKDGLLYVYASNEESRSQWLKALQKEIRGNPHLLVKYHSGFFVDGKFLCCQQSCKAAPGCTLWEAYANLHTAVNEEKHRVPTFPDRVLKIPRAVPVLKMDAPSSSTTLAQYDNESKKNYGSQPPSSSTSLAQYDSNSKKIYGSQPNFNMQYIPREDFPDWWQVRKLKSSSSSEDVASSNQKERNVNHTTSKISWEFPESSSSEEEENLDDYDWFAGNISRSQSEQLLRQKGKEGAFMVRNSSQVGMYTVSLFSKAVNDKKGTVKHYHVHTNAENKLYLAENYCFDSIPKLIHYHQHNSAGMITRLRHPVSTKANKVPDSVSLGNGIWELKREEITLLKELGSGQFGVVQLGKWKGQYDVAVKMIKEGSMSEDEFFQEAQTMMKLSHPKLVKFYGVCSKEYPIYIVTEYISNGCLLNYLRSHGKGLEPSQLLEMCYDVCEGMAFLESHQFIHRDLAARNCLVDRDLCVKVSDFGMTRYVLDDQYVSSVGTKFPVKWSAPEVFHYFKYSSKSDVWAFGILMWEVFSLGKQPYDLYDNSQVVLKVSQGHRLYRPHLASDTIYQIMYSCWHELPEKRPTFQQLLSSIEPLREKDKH

Row | Compound | residual activity (MAPKAPK3 (human)) [%] | residual activity (GSK3B (human)) [%] | residual activity (PAK7 (human)) [%] | residual activity (MAP3K11 (human)) [%] | residual activity (ROCK1 (human)) [%] | residual activity (BRAF (human)) [%] | residual activity (CDK2 CCNE1 (human)) [%] | residual activity (DAPK2 (human)) [%] | residual activity (ULK3 (human)) [%] | residual activity (MYO3B (human)) [%] | residual activity (PIM1 (human)) [%] | residual activity (EPHB4 (human)) [%] | residual activity (ADRBK1 (human)) [%] | residual activity (TLK2 (human)) [%] | residual activity (IKBKE (human)) [%] | residual activity (BMX (human)) [%] | residual activity (AURKC (human)) [%] | residual activity (STK38 (human)) [%] | residual activity (FRK (human)) [%] | residual activity (DYRK2 (human)) [%] | other results
1 | O=C(CCCc1ccc(-c2ccccc2F)cc1)Nc1ccc(O)cc1 | 91 | 99.4 | 90.3 | 101 | 106 | 93 | 91.9 | 106 | 103 | 96.3 | 97.9 | 106 | 105 | 84.1 | 98.2 | 99.6 | 95.4 | 109 | 91.9 | 91.8 | residual activity (NEK1 (human)): 100%; residual activity (FGFR1 (human)): 98%; residual activity (EPHA7 (human)): 104%; residual activity (RPS6KA2 KD1 KD2 (human)): 101%; residual activity (PRKCG (human)): 98%; residual activity (DMPK (human)): 130%; residual activity (FLT3 (human)): 104%; residual activity (EPHA5 (human)): 99%; residual activity (YES1 (human)): 110%; residual activity (PRKCD (human)): 110%; residual activity (CAMK1 (human)): 101%; residual activity (STK3 (human)): 94.8%; residual activity (ACVR1B (human)): 95.9%; residual activity (PRKACG (human)): 93.5%; residual activity (INSR (human)): 102%; residual activity (SYK (human)): 101%; residual activity (MAP3K5 (human)): 94.3%; residual activity (EPHA6 (human)): 89.6%; residual activity (GRK4 (human)): 96.8%; residual activity (IGF1R (human)): 106%
2 | O=C1Cc2c([nH]c3ccc(Br)cc23)-c2ccccc2N1 | 100 | 19.7 | 85.1 | 49.4 | 96.1 | 97.7 | 51.9 | 100 | 83.2 | 97.4 | 96.8 | 100 | 103 | 99.4 | 89.8 | 99.6 | 90.9 | 98.6 | 97.4 | 107 | residual activity (NEK1 (human)): 95.4%; residual activity (FGFR1 (human)): 99.4%; residual activity (EPHA7 (human)): 101%; residual activity (RPS6KA2 KD1 KD2 (human)): 94.9%; residual activity (PRKCG (human)): 93.8%; residual activity (DMPK (human)): 110%; residual activity (FLT3 (human)): 47.7%; residual activity (EPHA5 (human)): 96.6%; residual activity (YES1 (human)): 59.1%; residual activity (PRKCD (human)): 92.7%; residual activity (CAMK1 (human)): 106%; residual activity (STK3 (human)): 83.2%; residual activity (ACVR1B (human)): 99.8%; residual activity (PRKACG (human)): 105%; residual activity (INSR (human)): 101%; residual activity (SYK (human)): 81.5%; residual activity (MAP3K5 (human)): 99.2%; residual activity (EPHA6 (human)): 93.7%; residual activity (GRK4 (human)): 97.9%; residual activity (IGF1R (human)): 103%
3 | COc1cc2ncnc(N3CCN(C(=O)Nc4ccc(Oc5ccccc5)cc4)CC3)c2cc1OC | 94.6 | 99 | 96.8 | 97 | 86 | 92.6 | 92.1 | 95 | 100 | 95.4 | 102 | 99.3 | 96.7 | 94.7 | 98.9 | 90.9 | 90.3 | 96.9 | 90.2 | 95.4 | residual activity (NEK1 (human)): 92.6%; residual activity (FGFR1 (human)): 89.6%; residual activity (EPHA7 (human)): 96.8%; residual activity (RPS6KA2 KD1 KD2 (human)): 86.1%; residual activity (PRKCG (human)): 104%; residual activity (DMPK (human)): 95.6%; residual activity (FLT3 (human)): 43.2%; residual activity (EPHA5 (human)): 98.3%; residual activity (YES1 (human)): 106%; residual activity (PRKCD (human)): 84.3%; residual activity (CAMK1 (human)): 96.9%; residual activity (STK3 (human)): 93.3%; residual activity (ACVR1B (human)): 94.7%; residual activity (PRKACG (human)): 103%; residual activity (INSR (human)): 98.2%; residual activity (SYK (human)): 93.2%; residual activity (MAP3K5 (human)): 102%; residual activity (EPHA6 (human)): 89.6%; residual activity (GRK4 (human)): 94.7%; residual activity (IGF1R (human)): 103%
4 | COc1cc2ncc(-c3ccccc3)nc2cc1OC | 86.7 | 113 | 85.6 | 86.8 | 95.5 | 93.2 | 85.4 | 97.3 | 89.4 | 84.6 | 95.9 | 86.4 | 95.8 | 96.3 | 98.9 | 92.2 | 90.1 | 95.9 | 99.3 | 95.9 | residual activity (NEK1 (human)): 95.9%; residual activity (FGFR1 (human)): 92.9%; residual activity (EPHA7 (human)): 94.7%; residual activity (RPS6KA2 KD1 KD2 (human)): 85.4%; residual activity (PRKCG (human)): 101%; residual activity (DMPK (human)): 103%; residual activity (FLT3 (human)): 65.9%; residual activity (EPHA5 (human)): 99.9%; residual activity (YES1 (human)): 96.1%; residual activity (PRKCD (human)): 82.2%; residual activity (CAMK1 (human)): 90.4%; residual activity (STK3 (human)): 95.7%; residual activity (ACVR1B (human)): 95.2%; residual activity (PRKACG (human)): 87.6%; residual activity (INSR (human)): 89.1%; residual activity (SYK (human)): 92.5%; residual activity (MAP3K5 (human)): 108%; residual activity (EPHA6 (human)): 90.4%; residual activity (GRK4 (human)): 97.8%; residual activity (IGF1R (human)): 91.1%
5 | Nc1nccc(-c2c(-c3ccc(F)cc3)ncn2C2CCNCC2)n1 | 99.4 | 101 | 101 | 96.3 | 103 | 103 | 92.1 | 94.1 | 95.5 | 97.9 | 97 | 91.5 | 99.7 | 95.1 | 99.5 | 92.9 | 97.8 | 99.8 | 95.4 | 95.9 | residual activity (NEK1 (human)): 100%; residual activity (FGFR1 (human)): 91.2%; residual activity (EPHA7 (human)): 94%; residual activity (RPS6KA2 KD1 KD2 (human)): 99.3%; residual activity (PRKCG (human)): 87.8%; residual activity (DMPK (human)): 99.3%; residual activity (FLT3 (human)): 90.3%; residual activity (EPHA5 (human)): 97.8%; residual activity (YES1 (human)): 85.3%; residual activity (PRKCD (human)): 99.8%; residual activity (CAMK1 (human)): 107%; residual activity (STK3 (human)): 103%; residual activity (ACVR1B (human)): 121%; residual activity (PRKACG (human)): 105%; residual activity (SYK (human)): 98%; residual activity (MAP3K5 (human)): 102%; residual activity (EPHA6 (human)): 78%; residual activity (GRK4 (human)): 96.9%; residual activity (IGF1R (human)): 104%
